Test results taken from patent US20050014751A1, “Use of n-acyl homoserine lactones for the treatment of insulitis” (priority 2001, published 2005).
Several values for one entry are separate records, joined by “and”; a condition that tells them apart may be missing. Equal values may be shown once.

Assays:
diabetes in NOD mice [1] = test: In vivo effects of CSA, anti-TNFα and OdDHL in the diabetes model; details: OdDHL 30 mg/kg, 3 times per week for 4 weeks
Procedure: Dose regimes of Cyclosporin A, anti-TNFα antibody and OdDHL were compared in the diabetes model. NOD mice were dosed at 25 mg/kg on alternate days for 160 days following the methodology of Mori et al (Diabetologia (1986) 29: 244-247), the content of which is incorporated herein by reference, for the investigation of CSA, and Anti TNF at 12 mg per individual, 0.5 mg three times a week for 8 weeks in accordance with the method of Suk et al (J. Immunology (2001) 166: 4481-4489), the content of which is incorporated herein by reference, was used for TNFα. OdDHL was dosed at 30 mg/kg, 3 times per week for 4 weeks as above.

murine spleen cells = details: Infection and Immunity, vol.66, no.1, January 1998; cited from earlier work
murine splenocytes = test: ConA mitogen-stimulated proliferation of murine splenocytes; type: cell-based, BALB/c mice; details: ConA 1 μg/ml, 100,000 spleen cells, 1 mM to 0.1 μM
Procedure: The concanavalin A (ConA) cell proliferation assay was used to assess the effect of homoserine lactone (HSL) compounds on T-cell activation and proliferation. Proliferation was assessed by the incorporation of [^3H]-thymidine into DNA. Eight-week-old female BALB/c mice were obtained from Harlan (Bicester, Oxon, UK) and given food and water ad libitum. Splenocyte suspensions were prepared by removing the spleens and placing them into. RPMI 1640 medium. The spleens were forced through 70-μm-pore-size wire gauzes using the plunger from a 5-ml syringe to produce a single cell suspension. The cells were pelleted by centrifugation, and erythrocytes were lysed with 0.017M Tris, 0.144M ammonium chloride buffer, pH 7.2. Leucocytes were washed twice with RPMI 1640 medium with 2% (vol/vol) foetal calf serum (FCS) and resuspended in complete cell culture medium (CTCM) consisting of RPMI 1640 medium with 5% FCS, 2 mM L-glutamine, and 5×10^−5 M 2-mercaptoethanol. […] After the addition of 25 μl of MicroScint-O (Packard) to each well the filters were counted with the Packard TopCount scintillation counter. […]
In the cell culture assays the number of cells used (mouse splenocytes and human PBMC) was initially optimised to 100,000 cells per well. The optimal dose of ConA of 1 μg/ml used in the cell proliferation assays was determined from ConA titration curves. […]

insulitis in NOD mice = test: Effect of OdDHL on insulitis in NOD mice (slide score); type: in vivo; details: 3 times a week for four weeks
Procedure: To investigate the effect of OdDHL on insulitis or type I diabetes mellitus, mice (NOD) with a genetic predisposition to develop IDDM (insulin dependent diabetes mellitus) were treated with OdDHL. The animals were dosed at […] intraperitoneally from 4 weeks of age, 3 times a week for four weeks. Insulitis was assessed at 14 weeks. In the table a score of 3 or more (DMSO and PBS) represents severe grade insulitis and 1.3 (OdDHL) represents little infiltration (a score of 1 would represent low grade peri-insulitis). The mice were scored according to the method of Beales et al (European Journal of Pharmacology 357(1998) 221-225).

diabetes in NOD mice [2] = test: Alleviation of diabetes in NOD mice (incidence of diabetes, Uristix); type: in vivo; details: above 6 mMol glucose/l = diabetes
Procedure: The ability of the lead compound (OdDHL) to alleviate diabetes in NOD mice was determined by treating the mice 3 times per week for 4 weeks at 30 mg/kg as above. DMSO and OHHL were used as controls.
Diabetes was diagnosed using Uristix and a level of above 6 mMol glucose/I was taken to indicate the presence of diabetes.

TNF-α production = details: Infection and Immunity, vol.66, no.1, January 1998; cited from earlier work
[3] = test system: delayed type hypersensitivity response to SRBCs in Balb/c mice; test: Murine in vivo DTH response to SRBCs (footweight), oral OdDHL; details: Balb/c mice immunised with 5×10^6 SRBCs
Procedure: Eight week old, female Balb/c mice were kept on a 12 hour light/dark cycle and fed food and water ad libitum. SRBCs in Alseviers solution (TCS Biologicals, SB069) were washed and centrifuged (800×g for 20 minutes at room temperature) three times with 0.9% NaCl in distilled water. Cells were counted using a haemocytometer. On day 0 animals were immunised intraperitoneally (IP) with 5×10^6 (low dose) or 5×10^8 (high dose) SRBCs in saline. On day 5, animals were challenged with 20 μl SRBCs at 5×10^9/ml in the left hind paw. The contralateral paw was injected with 20 μl saline alone. After 24 hours the animals were sacrificed with a rising concentration of CO2 and bled by cardiac puncture. The hind feet were severed at the ankle joint and weighed.
Animals were dosed po from day 0 to day 5 with OdDHL. OdDHL was suspended in 0.25% (wt/vol) cellosize (Boots Co. PLC, Nottingham UK) in distilled water containing 1.5% (vol/vol) Tween 80 (Registered Trade Mark, Sigma) for po dosing at 3, 10, 30 and 100 mg/kg. Animals received 0.1 ml po.
This manifests itself as an inflammatory response causing an increase in the size of the foot. Very little antibody is produced. OdDHL at 3, 10, 30 and 100 mg/kg caused a dose dependent increase in footweight of 37%, 60%, 100% and 93% respectively (see FIG. 5). Mice dosed with OdDHL had higher footweights when compared to vehicle dosed animals. The 30 and 100 mg/kg doses (** on graph) are significant as determined by Dunnett's multiple comparison's test after one-way analysis of variance (p<0.01). This assay is considered by the pharmaceutical industry to be […] dependent, indicating the effect of compound treatment on contra-regulating T-helper 1 lymphocytes.

## CCCCCCCCCC(=O)CC(=O)N[C@H]1CCOC1=O [OdDHL, N-(3-oxododecanoyl)-L-homoserine Lactone]
Diabetes in NOD mice [1]
  in vivo action compared to reported data of Mori (CSA) and Suk (anti-TNF): more effective in vivo action than in vitro
Murine spleen cells
  inhibition of concanavalin A mitogen stimulated proliferation of murine spleen cells: inhibiting
Murine splenocytes
  inhibition of splenocyte proliferation ([3H]-thymidine cpm, FIG. 6): inhibits splenocyte proliferation
Insulitis in NOD mice; 100 mg/kg intraperitoneally from 4 weeks of age, insulitis assessed at 14 weeks, one value per animal, 100 mg/kg
  Slide Score (insulitis), individual animal: 1.936 and 1.478 and 1.154 and 1.000 and 1.418
Insulitis in NOD mice; 100 mg/kg intraperitoneally, assessed at 14 weeks
  Slide Score (insulitis), Group Total: 6.986
Insulitis in NOD mice; 100 mg/kg intraperitoneally, assessed at 14 weeks, score of 3 or more = severe grade insulitis, 1 = low grade peri-insulitis, 100 mg/kg
  Slide Score (insulitis), Group Mean: 1.397
Diabetes in NOD mice [2]; Week of Experiment 20, 30 mg/kg 3 times per week for 4 weeks
  incidence of diabetes: 0/11
Diabetes in NOD mice [2]; Week of Experiment 30, 30 mg/kg 3 times per week for 4 weeks, week 30 of experiment
  incidence of diabetes: 5/20
TNF-α production
  inhibition of TNF-α production by LPS-stimulated adherent murine peritoneal macrophages: inhibiting
[3]; 3 mg/kg po day 0 to day 5, vs vehicle
  increase in footweight: 37%
[3]; 10 mg/kg po day 0 to day 5, vs vehicle
  increase in footweight: 60%
[3]; 30 mg/kg po day 0 to day 5, vs vehicle, p<0.01
  increase in footweight: 100%
[3]; 100 mg/kg po day 0 to day 5, vs vehicle, p<0.01
  increase in footweight: 93%
